Test results reported in the supplement of paper PMC10307832.

Legend:
Test in all cases: relative viability (nuclei count vs DMSO), 5 days (fraction); higher = more cells survive
[1] = compound: Cc1cnc(CNC(=O)c2c(=O)c3ccc(N4CCCN(C)CC4)nc3n3c2sc2ccccc23)cn1 [CX-5461] + COc1cccc2cc(-c3nc([C@H]4CC[C@H](C(=O)O)CC4)n4ncnc(N)c34)[nH]c12 [OSI-027] (partner 0.5 µM)
Method in brief: (§1)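 Lung cancer cell lines, seeded in 1536-well plates, were treated the following day by pin tool with a single drug or with five library-drug doses (not always all listed) in √10 steps on top of a fixed anchor-drug dose. Cells were fixed and nuclei stained in one step after 5 days, and nuclei were counted. Relative viability is the nuclei count for treated wells divided by that for vehicle wells, reported as medians of duplicate plates.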

[2] = compound: Cc1cnc(CNC(=O)c2c(=O)c3ccc(N4CCCN(C)CC4)nc3n3c2sc2ccccc23)cn1 [CX-5461] + O=C(CCCCCCC(=O)Nc1ccccc1)NO [Vorinostat] (partner 1 µM)
Method in brief: as §1

[3] = compound: O=C(Nc1cc(C(F)(F)F)cc(C(F)(F)F)c1)c1cc(Cl)ccc1O [IMD-0354] + CC1(C)CCC(c2ccc(Cl)cc2)=C(CN2CCN(c3ccc(C(=O)NS(=O)(=O)c4ccc(N[C@H](CCN5CCOCC5)CSc5ccccc5)c(S(=O)(=O)C(F)(F)F)c4)cc3)CC2)C1 [Navitoclax] (partner 0.5 µM)
Method in brief: as §1

[4] = compound: O=C(Nc1cc(C(F)(F)F)cc(C(F)(F)F)c1)c1cc(Cl)ccc1O [IMD-0354] + C[C@]1(O)C[C@@H](c2nc(-c3ccc4ccc(-c5ccccc5)nc4c3)c3c(N)nccn32)C1 [Linsitinib] (partner 1 µM)
Method in brief: as §1

Cell Line | relative viability ([1]; first compound 0.01 µM) | relative viability ([1]; first compound 0.03162 µM) | relative viability ([1]; first compound 0.1 µM) | relative viability ([1]; first compound 1 µM) | relative viability ([2]; first compound 0.01 µM) | relative viability ([2]; first compound 0.03162 µM) | relative viability ([2]; first compound 0.1 µM) | relative viability ([2]; first compound 0.3162 µM) | relative viability ([2]; first compound 1 µM) | relative viability ([3]; first compound 0.1265 µM) | relative viability ([3]; first compound 0.4 µM) | relative viability ([3]; first compound 1.265 µM) | relative viability ([3]; first compound 4 µM) | relative viability ([4]; first compound 0.1265 µM) | relative viability ([4]; first compound 0.4 µM) | relative viability ([4]; first compound 1.265 µM) | relative viability ([4]; first compound 4 µM) | relative viability ([1]; first compound 0.3162 µM) | relative viability ([3]; first compound 0.04 µM) | relative viability ([4]; first compound 0.04 µM)
LCLC-97TM1 | 0.483 | 0.591 | 0.49 | 0.484 | 0.917 | 0.965 | 0.769 | 0.102 | 0.661 | 0.331 | 0.368 | 0.322 | 0.205 | 0.153 | 0.179 | 0.177 | 0.132 | – | – | –
LK-2 | 0.268 | 0.173 | 0.185 | 0.179 | 0.422 | 0.315 | 0.367 | 0.2 | 0.307 | 0.812 | – | 0.777 | 0.247 | 0.505 | – | 0.863 | 0.19 | 0.162 | 1.15 | 0.527
LOU-NH91 | 0.756 | 0.728 | 0.714 | 0.727 | 0.985 | 0.957 | 0.87 | 0.49 | 0.697 | 0.712 | 0.396 | 0.135 | 0.165 | 0.989 | 0.652 | 0.317 | 0.251 | – | 0.734 | 0.945
LU99A | 0.338 | 0.295 | 0.333 | 0.258 | 0.529 | 0.544 | 0.377 | 0.323 | 0.215 | 0.808 | 0.654 | 0.479 | 0.148 | 0.527 | 0.398 | 0.452 | 0.147 | 0.257 | 0.644 | 0.553
LXF-289 | 0.755 | 0.924 | 0.892 | 0.581 | 0.803 | 0.744 | 0.635 | – | 0.544 | 0.88 | 0.789 | 0.666 | 0.0776 | 0.932 | 0.768 | 0.459 | 0.108 | 0.416 | 0.927 | 1.04
NCI-H23 | 0.672 | 0.757 | 0.546 | 0.343 | 0.755 | 0.577 | 0.492 | 0.458 | 0.3 | 0.814 | 0.54 | 0.394 | 0.207 | 0.646 | 0.425 | 0.318 | 0.19 | 0.544 | 0.893 | 0.643
NCI-H322M | 0.534 | 0.552 | 0.578 | 0.393 | 0.894 | 0.802 | 0.9 | 0.569 | 0.743 | 1.23 | 1.12 | 1.5 | 0.267 | 0.909 | 0.793 | 1.09 | 0.319 | 0.389 | 1.27 | 0.973
NCI-H441 | 0.696 | 0.659 | 0.607 | 0.408 | 0.538 | 0.984 | 0.707 | 0.618 | 0.556 | 0.473 | 0.38 | 0.164 | 0.217 | 0.659 | 0.31 | 0.234 | 0.22 | 0.534 | – | 0.485
NCI-H460 | 0.573 | 0.541 | – | 0.0247 | 0.721 | 0.909 | 0.216 | 0.48 | 0.0282 | 0.977 | 0.0491 | 0.0709 | 0.0241 | 0.709 | 0.278 | 0.0367 | 0.0126 | 0.684 | 1.21 | 1.2
NCI-H520 | 0.193 | 0.247 | 0.24 | 0.266 | 0.734 | 0.681 | 0.661 | 0.642 | 0.291 | 0.928 | 0.473 | 0.159 | 0.254 | 0.816 | 0.469 | 0.187 | 0.179 | 0.197 | 1.25 | 1.16
NCI-H596 | 0.711 | 0.737 | 0.775 | 0.591 | 0.608 | 0.686 | 0.664 | 0.706 | 0.306 | 0.854 | 0.777 | 0.982 | 0.476 | 1.05 | 0.839 | 1.21 | 0.682 | 0.715 | 0.96 | 0.973
NCI-H647 | 0.742 | 0.565 | 0.669 | 0.467 | 0.646 | 0.536 | 0.441 | 0.548 | 0.251 | 1.57 | 0.521 | 0.198 | 0.068 | 1.1 | 0.515 | 0.276 | 0.158 | 0.566 | 1.47 | 1.36
NCI-H727 | 0.59 | 0.866 | 0.622 | 0.584 | 1.4 | 1.2 | 1.28 | 1.03 | 1.05 | 0.319 | 0.423 | 0.165 | 0.205 | 0.257 | 0.281 | 0.206 | 0.233 | 0.58 | 0.407 | 0.161
NCI-H838 | 0.413 | 0.384 | 0.404 | 0.272 | 0.669 | 0.789 | 0.76 | 0.548 | 0.617 | 1.21 | 0.468 | 0.314 | 0.251 | 0.969 | 0.505 | 0.47 | 0.324 | – | 1.16 | 1.18
NCI-H1355 | 0.438 | 0.428 | 0.456 | 0.321 | 0.711 | 0.736 | 0.625 | 0.432 | 0.43 | 0.932 | 0.82 | 0.916 | 0.185 | 0.708 | 0.757 | 0.795 | 0.203 | 0.267 | 1.03 | 1.04
NCI-H1395 | 0.639 | 0.625 | 0.63 | 0.515 | 0.672 | 0.635 | 0.535 | 0.379 | 0.473 | 1.24 | 0.931 | 0.389 | 0.311 | 1.28 | 0.99 | 0.395 | 0.42 | 0.475 | 1.15 | 1.02
